Like-named read-outs stand apart in the source and are kept apart here.
Experiments:
[1] = test system: HCV-RNA replication in ORL8 cells; assay: Combination effect with existing anti-HCV agents in ORL8 cells (luciferase activity vs expected additive curve); assay type: cell-based, HCV genotype 1b; conditions: for effect in combination with CsA: CsA 0.2, 0.3, 0.4 μM; for effect in combination with CsA / effect in combination with FLV / effect in combination with RBV: compound 0.1, 0.2, 0.4 μM; for effect in combination with FLV: FLV 0.3, 1.0, 3.0 μM; for effect in combination with RBV: RBV 12.5, 25, 50 μM
Experimental: The effect of N-89 in combination with RBV was examined using ORL8 cells.
The drugs RBV and N-89 were added so that the concentrations of RBV were set to 0, 12.5, 25, and 50 μM and the concentrations of N-89 were set to 0, 0.1, 0.2, and 0.4 μM at each concentration of RBV. The luciferase activity was measured 72 hours after the culture.
The upper left panel of FIG. 19 and the upper right panel of FIG. 19 show the logarithmic and linear plots expressed by % of the measurement results, respectively.
The effect of N-251 in combination with RBV was examined using ORL8 cells.
The effect of N-89 in combination with IFN-α and RBV was examined using ORL8 cells.
The drugs N-89, IFN-α, and RBV were added so that the concentrations of the two drugs IFN-α and RBV were fixed as follows: both of IFN-α and RBV at 0; IFN-α at 1 IU/mL and RBV at 6.25 μM; IFN-α at 4 IU/mL and RBV at 12.5 μM; and IFN-α at 16 IU/mL and RBV at 25 μM, and the concentrations of N-89 were set to 0, 0.1, 0.2, and 0.4 μM in the respective combinations of IFN-α and RBV. The luciferase activity was measured 72 hours after the culture.
The luciferase activity was measured 72 hours after the culture.
The effect of N-89 in combination with FLV was examined using ORL8 cells.
The drugs FLV and N-89 were added so that the concentrations of FLV were set to 0.3, 1.0, and 3.0 μM and the concentrations of N-89 were set to 0, 0.1, 0.2, and 0.4 μM at each concentration of FLV. The luciferase activity was measured 72 hours after the culture.
The effect of N-251 in combination with FLV was examined using ORL8 cells.
The drugs FLV and N-251 were added so that the concentrations of FLV were set to 0.3, 1.0, and 3.0 μM and the concentrations of N-251 were set to 0, 0.1, 0.2, and 0.4 μM at each concentration of FLV. The luciferase activity was measured 72 hours after the culture.

[2] = test system: HCV-RNA replication in ORL8 cells; assay: Effect of antioxidant vitamin E on anti-HCV activity in ORL8 cells (luciferase activity); assay type: cell-based, HCV genotype 1b; conditions: for luciferase activity, compound in combination with vitamin E: compound 0.5 μM + vitamin E 10 μM; for luciferase activity, compound in combination with vitamin E / luciferase activity (HCV activity), compound alone: 72 hours; for luciferase activity (HCV activity), compound alone: compound 0.5 μM alone; for canceling of the anti-HCV activity by vitamin E: vitamin E 10 μM
Experimental: The effect of addition of vitamin E on the anti-HCV activity of N-89 was examined using ORL8 cells. An experimental scale and schedule are the same as those in Example 1.
N-89 and vitamin E were simultaneously added so that the concentrations of N-89 and vitamin E were set to 0.5 μM and 10 μM, respectively. The luciferase activity was measured 72 hours after the culture.
The effect of addition of vitamin E on the anti-HCV activity of N-251 was examined using ORL8 cells. An experimental scale and schedule are the same as those in Example 1.
N-251 and vitamin E were simultaneously added so that the concentrations of N-251 and vitamin E were set to 0.5 μM and 10 μM, respectively. The luciferase activity was measured 72 hours after the culture.
The effect of addition of vitamin E on the anti-HCV activity of artemisinin was examined using ORL8 cells. An experimental scale and schedule are the same as those in Example 1.
Artemisinin and vitamin E were simultaneously added so that the concentrations of artemisinin and vitamin E were set to 100 μM and 10 μM, respectively. The luciferase activity was measured 72 hours after the culture.

[3] = test system: HCV-RNA replication in AH1R cells (HCV-AH1 strain, HuH-7-derived); assay: microbe, parasite or virus in culture; assay type: cell-based, HCV genotype 1b; conditions: for EC50: Hepatitis C virus, 72 hours, renilla luciferase activity
Source text: Assay systems using OR6 cells (HCV-O strain), 1B-4R cells (HCV-1B-4 strain), and AH1R cells (HCV-AH1R strain) as HuH-7 cell-derived full-length HCV-RNA-replicating cells, and ORL8 cells (HCV-O strain), ORL11 cells (HCV-O strain), 1B-4RL cells (HCV-1B-4 strain), and KAH5RL cells (HCV-KAH5 strain) as Li23 cell-derived full-length HCV-RNA-replicating cells were used for the quantitative analysis of anti-HCV activity and evaluation of a cytotoxic effect in the present invention. […] In addition, all the HCV strains belong to genotype 1b.
(§1) As necessary, an increase or decrease in expression level of an HCV protein (core protein) was examined by a Western blot method.
N-89 was added so as to achieve concentrations of 500 nM, a 2-fold dilution series from 500 nM (250, 125, 63, 31, 16, and 8 nM), and 0. The luciferase activities were measured 72 hours after the culture.
N-251 was added so as to achieve concentrations of 2 μM, a 2-fold dilution series from 2 μM (1, 0.5, 0.25, 0.13, 0.06, and 0.03 μM), and 0. The luciferase activities were measured 72 hours after the culture.

ORL8 cells = assay: Cytotoxic effect, WST-1 cell proliferation assay in ORL8 cells; conditions: ORL8 cells
Source text: Assay systems using OR6 cells (HCV-O strain), 1B-4R cells (HCV-1B-4 strain), and AH1R cells (HCV-AH1R strain) as HuH-7 cell-derived full-length HCV-RNA-replicating cells, and ORL8 cells (HCV-O strain), ORL11 cells (HCV-O strain), 1B-4RL cells (HCV-1B-4 strain), and KAH5RL cells (HCV-KAH5 strain) as Li23 cell-derived full-length HCV-RNA-replicating cells were used for the quantitative analysis of anti-HCV activity and evaluation of a cytotoxic effect in the present invention. The three cell lines, i.e., the 1B-4R cells, the 1B-4RL cells, and the KAH5RL cells have been disclosed in WO 2010/026965 A1. The AH1R cells may be produced with reference to Mori K et al., BBRC, 371:104-109, 2008 and WO 2010/026965 A1. In addition, all the HCV strains belong to genotype 1b.
In the measurement of the renilla luciferase activity and the measurement by the WST-1 method, experiments were performed in three wells independent of each other, and their means and standard deviation were calculated.
The cytotoxic effects of N-89 and N-251 were examined using ORL8 cells and the CC50 values were calculated. An experimental scale and schedule are the same as those in Example 1.
N-89 and N-251 were added so as to achieve concentrations of 5 μM, a 2-fold dilution series from 5 μM (2.5, 1.3, 0.63, 0.31, 0.16, and 0.08 μM), and 0. The WST-1 cell proliferation assay was performed 72 hours after the culture.
The cytotoxic effect of artemisinin was examined using OR6 and ORL8 cells and the CC50 values were calculated. An experimental scale and schedule are the same as those in Example 1. Artemisinin was added so as to achieve concentrations of 400 μM, a 2-fold dilution series from 400 μM (200, 100, 50, 25, and 13 μM), and 0. The WST-1 cell proliferation assay was performed 72 hours after the culture.

[4] = test system: HCV-RNA replication in OR6, 1B-4R, AH1R, ORL8, ORL11, 1B-4RL and KAH5RL cells; assay: Anti-HCV activity summarized over cells derived from various HCV strains (reporter assays); assay type: cell-based, HCV genotype 1b; conditions: Hepatitis C virus, seven full-length HCV-RNA-replicating cell lines, read-out: EC50 values, range over all cells
Source text: as §1

Row | Compound | effect in combination with CsA ([1]; 72 hours) | effect in combination with FLV ([1]; 72 hours) | gaps between actually measured values and values expected as an additive effect ([1]; IFN-α 1 IU/mL and RBV 6.25 μM, N-89 0.1-0.4 μM) | effect in combination with IFN-α and RBV ([1]; IFN-α 4 IU/mL + RBV 12.5 μM and IFN-α 16 IU/mL + RBV 25 μM, N-89 0.1-0.4 μM, 72 hours) | effect in combination with RBV ([1]; 72 hours) | luciferase activity, compound in combination with vitamin E [2] | luciferase activity (HCV activity), compound alone [2] | canceling of the anti-HCV activity by vitamin E [2] | SI (CC50/EC50) [3] | EC50 [3] | SI (CC50/EC50) ([3]; listed as N89) | cytotoxicity at 1 μM (WST-1 assay) (ORL8 cells) | EC50 [4] | CC50 (ORL8 cells; 72 hours, WST-1)
1 | C1CCCCCC2(CCCCC1)OOCCCOO2 [N-89, 1,2,6,7-tetraoxaspiro[7,11]nonadecane] | synergistic effect | synergistic effect | little gaps | synergistic effect | synergistic effect | 245% | 27% | completely canceled | about 20 | 25 nM | ~20 | not exhibiting cytotoxicity | 25 to 660 nM | 
2 | OCCCCCCC1COOC2(CCCCCCCCCCC2)OOC1 [N-251, 6-(1,2,6,7-tetraoxaspiro[7,11]nonadec-4-yl)] | synergistic effect | synergistic effect |  |  | synergistic effect | 215% | 33% | completely canceled | 3.5 | 140 nM |  | not exhibiting cytotoxicity | 59 to 980 nM | 1300 nM
